Assay results: PubChem BioAssay AID1745844 (Carcinogenic Potency Database (CPDB), 2022)
Calls of active or inactive are those of the source. The rule behind the calls is not given here.

Tested on: rodent lifetime carcinogenesis bioassay, tumor incidence TD50
Assay: carcinogenic potency in animals, long-term in vivo studies, CPDB compilation (AID 1745844)

## C#C[C@]1(O)CC[C@H]2[C@@H]3CCC4=C(CCC(=O)C4)[C@H]3CC[C@@]21C
mouse, strain (C3H x RIII)F1 (MTV+), females, in feed, site: mammary tissue, wider than the gland, lesion: one or several types, types not named, dosed 104 weeks, study length 104 weeks
  TD50: 2.13 mg/kg/day
mouse, strain CFLP, females, in feed, site: liver, lesion: hepatocellular tumor, dosed 78 weeks, study length 78 weeks
  TD50: 49.1 mg/kg/day (inactive)
mouse, strain CFLP, males, in feed, site: liver, lesion: hepatocellular tumor, dosed 78 weeks, study length 78 weeks
  carcinogen call: negative (inactive)
mouse, strain Swiss Webster, females, by gavage, site: liver, lesion: hepatocellular tumor, dosed 65 weeks, study length 80 weeks
  carcinogen call: negative (inactive)

## CNNC
hamster, strain Syrian Golden, females, in drinking water, site: blood vessels, lesion: angiosarcoma, dosed 67 weeks, study length 67 weeks
  TD50: 0.156 mg/kg/day
hamster, strain Syrian Golden, females, in drinking water, site: cecum, lesion: adenocarcinoma, dosed 67 weeks, study length 67 weeks
  TD50: 2.84 mg/kg/day
hamster, strain Syrian Golden, females, in drinking water, site: cecum, lesion: polypoid adenoma, dosed 67 weeks, study length 67 weeks
  TD50: 2.08 mg/kg/day
hamster, strain Syrian Golden, females, in drinking water, site: cecum, lesion: several types, types named in the paper, dosed 67 weeks, study length 67 weeks
  TD50: 0.864 mg/kg/day
hamster, strain Syrian Golden, females, in drinking water, site: heart, lesion: angiosarcoma, dosed 67 weeks, study length 67 weeks
  TD50: 2.13 mg/kg/day
hamster, strain Syrian Golden, females, in drinking water, site: liver, lesion: angiosarcoma, dosed 67 weeks, study length 67 weeks
  TD50: 0.156 mg/kg/day
hamster, strain Syrian Golden, females, in drinking water, site: liver, lesion: hepatoma, dosed 67 weeks, study length 67 weeks
  TD50: 1.4 mg/kg/day
hamster, strain Syrian Golden, females, in drinking water, site: liver, lesion: several types, types named in the paper, dosed 67 weeks, study length 67 weeks
  TD50: 0.917 mg/kg/day
hamster, strain Syrian Golden, females, in drinking water, site: lung, lesion: angiosarcoma, dosed 67 weeks, study length 67 weeks
  TD50: 0.395 mg/kg/day
hamster, strain Syrian Golden, females, in drinking water, site: muscle, lesion: angiosarcoma, dosed 67 weeks, study length 67 weeks
  TD50: 1.03 mg/kg/day
hamster, strain Syrian Golden, females, in drinking water, site: pancreas, lesion: angiosarcoma, dosed 67 weeks, study length 67 weeks
  TD50: 18.4 mg/kg/day
hamster, strain Syrian Golden, males, in drinking water, site: blood vessels, lesion: angiosarcoma, dosed 71 weeks, study length 71 weeks
  TD50: 0.211 mg/kg/day
hamster, strain Syrian Golden, males, in drinking water, site: cecum, lesion: polypoid adenoma, dosed 71 weeks, study length 71 weeks
  TD50: 2.42 mg/kg/day
hamster, strain Syrian Golden, males, in drinking water, site: heart, lesion: angiosarcoma, dosed 71 weeks, study length 71 weeks
  TD50: 2.49 mg/kg/day
hamster, strain Syrian Golden, males, in drinking water, site: liver, lesion: angiosarcoma, dosed 71 weeks, study length 71 weeks
  TD50: 0.211 mg/kg/day
hamster, strain Syrian Golden, males, in drinking water, site: liver, lesion: several types, types named in the paper, dosed 71 weeks, study length 71 weeks
  TD50: 2.05 mg/kg/day
hamster, strain Syrian Golden, males, in drinking water, site: lung, lesion: angiosarcoma, dosed 71 weeks, study length 71 weeks
  TD50: 0.685 mg/kg/day
hamster, strain Syrian Golden, males, in drinking water, site: muscle, lesion: angiosarcoma, dosed 71 weeks, study length 71 weeks
  TD50: 1.36 mg/kg/day
hamster, strain Syrian Golden, males, in drinking water, site: pancreas, lesion: angiosarcoma, dosed 71 weeks, study length 71 weeks
  TD50: 18.6 mg/kg/day
mouse, strain Swiss albino, females, in drinking water, site: blood vessels, lesion: angiosarcoma, dosed 52 weeks, study length 52 weeks
  carcinogen call: positive
mouse, strain Swiss albino, females, in drinking water, site: liver, lesion: hepatoma, dosed 52 weeks, study length 52 weeks
  TD50: 13.9 mg/kg/day
mouse, strain Swiss albino, females, in drinking water, site: lung, lesion: adenoma, dosed 52 weeks, study length 52 weeks
  TD50: 0.559 mg/kg/day
mouse, strain Swiss albino, males, in drinking water, site: blood vessels, lesion: angiosarcoma, dosed 52 weeks, study length 52 weeks
  TD50: 0.102 mg/kg/day
mouse, strain Swiss albino, males, in drinking water, site: fat, lesion: angiosarcoma, dosed 52 weeks, study length 52 weeks
  TD50: 0.215 mg/kg/day
mouse, strain Swiss albino, males, in drinking water, site: liver, lesion: angiosarcoma, dosed 52 weeks, study length 52 weeks
  TD50: 0.377 mg/kg/day
mouse, strain Swiss albino, males, in drinking water, site: lung, lesion: several types, types named in the paper, dosed 52 weeks, study length 52 weeks
  TD50: 1.81 mg/kg/day
mouse, strain Swiss albino, males, in drinking water, site: lymph node, lesion: angiosarcoma, dosed 52 weeks, study length 52 weeks
  TD50: 1.02 mg/kg/day
mouse, strain Swiss albino, males, in drinking water, site: muscle, lesion: angiosarcoma, dosed 52 weeks, study length 52 weeks
  TD50: 0.203 mg/kg/day
mouse, strain Swiss albino, males, in drinking water, site: paraepididymal tissue, lesion: angiosarcoma, dosed 52 weeks, study length 52 weeks
  TD50: 0.337 mg/kg/day
mouse, strain Swiss albino, males, in drinking water, site: pararenal tissue, lesion: angiosarcoma, dosed 52 weeks, study length 52 weeks
  TD50: 0.18 mg/kg/day
mouse, strain Swiss albino, males, in drinking water, site: subcutaneous tissue, lesion: angiosarcoma, dosed 52 weeks, study length 52 weeks
  TD50: 0.781 mg/kg/day

## CCCCN(N)C=O
mouse, strain Swiss albino, females, in drinking water, site: clitoral gland, lesion: several types, types named in the paper, dosed 92 weeks, study length 92 weeks
  TD50: 252 mg/kg/day
mouse, strain Swiss albino, females, in drinking water, site: clitoral gland, lesion: squamous-cell carcinoma, dosed 92 weeks, study length 92 weeks
  TD50: 321 mg/kg/day
mouse, strain Swiss albino, females, in drinking water, site: lung, lesion: several types, types named in the paper, dosed 92 weeks, study length 92 weeks
  TD50: 19.4 mg/kg/day
mouse, strain Swiss albino, males, in drinking water, site: liver, lesion: angioma, dosed 90 weeks, study length 90 weeks
  carcinogen call: negative (inactive)
mouse, strain Swiss albino, males, in drinking water, site: lung, lesion: several types, types named in the paper, dosed 90 weeks, study length 90 weeks
  TD50: 19.2 mg/kg/day
mouse, strain Swiss albino, males, in drinking water, site: preputial gland, lesion: angiosarcoma, dosed 90 weeks, study length 90 weeks
  TD50: 519 mg/kg/day
mouse, strain Swiss albino, males, in drinking water, site: preputial gland, lesion: fibrosarcoma, dosed 90 weeks, study length 90 weeks
  TD50: 304 mg/kg/day
mouse, strain Swiss albino, males, in drinking water, site: preputial gland, lesion: several types, types named in the paper, dosed 90 weeks, study length 90 weeks
  TD50: 28.2 mg/kg/day
mouse, strain Swiss albino, males, in drinking water, site: preputial gland, lesion: squamous-cell carcinoma, dosed 90 weeks, study length 90 weeks
  TD50: 35.6 mg/kg/day

## Cc1c(C)c2c(c(C)c1O)CCC(C)(CCCC(C)CCCC(C)CCCC(C)C)O2 (stereo not given)
rat, strain F344/DuCrj, females, in feed, site: colon, lesion: one or several types, types not named, dosed 54 weeks, study length 54 weeks
  carcinogen call: negative (inactive)
rat, strain F344/DuCrj, females, in feed, site: mammary gland, lesion: one or several types, types not named, dosed 54 weeks, study length 54 weeks
  carcinogen call: negative (inactive)
rat, strain F344/DuCrj, males, in feed, site: esophagus, lesion: one or several types, types not named, dosed 52 weeks, study length 52 weeks
  carcinogen call: negative (inactive)
rat, strain F344/DuCrj, males, in feed, site: forestomach, lesion: one or several types, types not named, dosed 52 weeks, study length 52 weeks
  carcinogen call: negative (inactive)
rat, strain F344/DuCrj, males, in feed, site: liver, lesion: one or several types, types not named, dosed 52 weeks, study length 52 weeks
  carcinogen call: negative (inactive)

## CC(O)C(=O)O (stereo not given)
rat, strain F344/DuCrj, females, in drinking water, site: any site (literature study), lesion: one or several types, types not named, dosed 104 weeks, study length 113 weeks
  TD50: 103000 mg/kg/day
rat, strain F344/DuCrj, males, in drinking water, site: liver, lesion: hepatocellular adenoma, dosed 104 weeks, study length 113 weeks
  TD50: 54500 mg/kg/day

## O=S(=O)(O)c1ccc(N=Nc2cc(S(=O)(=O)O)c3ccccc3c2O)c2ccccc12
mouse, strain ASH-CS1, females, in feed, site: liver, lesion: one or several types, types not named, dosed 80 weeks, study length 80 weeks
  carcinogen call: negative (inactive)
mouse, strain ASH-CS1, females, in feed, site: lung, lesion: papillary adenoma, dosed 80 weeks, study length 80 weeks
  TD50: 32900 mg/kg/day (inactive)
mouse, strain ASH-CS1, males, in feed, site: liver, lesion: adenoma, dosed 80 weeks, study length 80 weeks
  carcinogen call: negative (inactive)
mouse, strain ASH-CS1, males, in feed, site: liver, lesion: nodular hyperplasia, dosed 80 weeks, study length 80 weeks
  carcinogen call: negative (inactive)
mouse, strain ASH-CS1, males, in feed, site: lung, lesion: papillary adenoma, dosed 80 weeks, study length 80 weeks
  TD50: 12300 mg/kg/day (inactive)
mouse, strain B6C3F1, females, in feed, site: any site (literature study), lesion: several types, types named in the paper, dosed 103 weeks, study length 104 weeks
  carcinogen call: negative (inactive)
mouse, strain B6C3F1, males, in feed, site: any site (literature study), lesion: several types, types named in the paper, dosed 103 weeks, study length 103 weeks
  carcinogen call: negative (inactive)
rat, strain Fischer 344, females, in feed, site: any site (literature study), lesion: several types, types named in the paper, dosed 103 weeks, study length 104 weeks
  TD50: 7180 mg/kg/day
rat, strain Fischer 344, females, in feed, site: clitoral gland, lesion: sebaceous adenoma, dosed 103 weeks, study length 104 weeks
  TD50: 16400 mg/kg/day
rat, strain Fischer 344, females, in feed, site: uterus, lesion: endometrial stromal polyp, dosed 103 weeks, study length 104 weeks
  TD50: 3270 mg/kg/day (inactive)
rat, strain Fischer 344, males, in feed, site: any site (literature study), lesion: several types, types named in the paper, dosed 103 weeks, study length 104 weeks
  TD50: 1860 mg/kg/day (inactive)
rat, strain Fischer 344, males, in feed, site: liver, lesion: hepatocellular adenoma + hepatocellular carcinoma + neoplastic nodule, dosed 103 weeks, study length 104 weeks
  TD50: 9850 mg/kg/day

## CCCCCCCCCCCN(C)N=O
rat, strain Fischer 344, males, by gavage, site: esophagus, lesion: squamous-cell carcinoma, dosed 30 weeks, study length 65 weeks
  TD50: 15.4 mg/kg/day
rat, strain Fischer 344, males, by gavage, site: liver, lesion: cholangiocarcinoma, dosed 30 weeks, study length 65 weeks
  TD50: 3.18 mg/kg/day
rat, strain Fischer 344, males, by gavage, site: liver, lesion: hepatocellular carcinoma, dosed 30 weeks, study length 65 weeks
  TD50: 2.38 mg/kg/day
rat, strain Fischer 344, males, by gavage, site: lung, lesion: alveolar adenoma, dosed 30 weeks, study length 65 weeks
  TD50: 2.41 mg/kg/day
rat, strain Fischer 344, males, by gavage, site: lung, lesion: alveolar-cell adenoma, dosed 30 weeks, study length 65 weeks
  TD50: 4.99 mg/kg/day
rat, strain Fischer 344, males, by gavage, site: lung, lesion: squamous-cell carcinoma, dosed 30 weeks, study length 65 weeks
  TD50: 2.37 mg/kg/day
rat, strain Fischer 344, males, by gavage, site: stomach, nonglandular, lesion: papilloma, dosed 30 weeks, study length 65 weeks
  TD50: 15.4 mg/kg/day
